Measured values reported in patent US10335503B2, “Compound that specifically binds to AMPA receptor” (Public University Corporation Yokohama City University, priority 2015, dated 2019).

How the values were obtained:
Opiate μ = Opiate μ (Homo sapiens, UniProt P35372); test: Receptor binding panel: Opiate μ; details: K-2 at 1 × 10^−7 mol/L
AMPA receptor = test: Biochemical experiment: biotinylation and quantitative Western blot of AMPA receptor after administration to living rat; type: in vivo
Procedure: In the LC-MS/MS experiment, all of the synthesized compounds were dissolved in 100% DMSO so as to have a concentration of 2.5 mM, diluted with physiological saline water immediately before administration (PEPA (1.2 pmol/g), M-1 (12 pmol/g), K-2 (12 pmol/g), M-3 (60 pmol/g), and M-2 (240 pmol/g)), and administered by the parenteral route. In the electrophysiological experiment, PEPA and K-2 were dissolved in 100% DMSO so as to have a concentration of 150 mM, diluted with ACSF as a reflux liquid immediately before the experiment so as to have a concentration of 150 μM and then used. In the biochemical experiment and the PET blocking experiment, K-2 was dissolved in 50% DMSO so as to have a concentration of 2.5 mM and 25 mM, and then administered to a rat at an amount of administration of 1 μl/weight (g) by the parenteral route so as to be 0.5 mg/kg and 5 mg/kg.
The LC-MS/MS experiment and the biochemical experiment were performed after a rat was allowed to get to sleep by inhalation of isoflurane while anesthesia was maintained using a dedicate carburetor at a concentration of 1.5%. […] In the LC-MS/MS experiment, the hippocampus region was collected in a thickness of approximately 2 mm from the extracted whole brain using Brain matrix (ASI instruments, U.S.), the tissue weight thereof was measured, and then the hippocampus region was put into a 1.5-ml conical tube. […]

α2B-Adrenergic = α2B-Adrenergic (Homo sapiens, UniProt P18089); test: Receptor binding panel: α2B-Adrenergic; details: K-2 at 1 × 10^−7 mol/L
Sequence of α2B-Adrenergic (P18089 whole entry): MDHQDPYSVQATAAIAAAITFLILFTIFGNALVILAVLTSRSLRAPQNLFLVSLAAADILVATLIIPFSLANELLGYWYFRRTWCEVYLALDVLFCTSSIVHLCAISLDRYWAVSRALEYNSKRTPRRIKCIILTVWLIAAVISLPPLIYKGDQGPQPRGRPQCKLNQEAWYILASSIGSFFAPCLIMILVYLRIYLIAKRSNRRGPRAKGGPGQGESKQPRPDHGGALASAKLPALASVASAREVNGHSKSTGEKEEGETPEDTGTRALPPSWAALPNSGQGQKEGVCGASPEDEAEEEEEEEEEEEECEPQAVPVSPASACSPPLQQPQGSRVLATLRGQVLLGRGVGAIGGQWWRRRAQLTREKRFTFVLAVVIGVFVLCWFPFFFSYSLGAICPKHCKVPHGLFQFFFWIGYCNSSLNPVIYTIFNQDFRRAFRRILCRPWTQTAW

Bradykinin B2 = Bradykinin B2 (Homo sapiens, UniProt P30411); test: Receptor binding panel: Bradykinin B2; details: K-2 at 1 × 10^−7 mol/L
Sequence of Bradykinin B2 (P30411 whole entry): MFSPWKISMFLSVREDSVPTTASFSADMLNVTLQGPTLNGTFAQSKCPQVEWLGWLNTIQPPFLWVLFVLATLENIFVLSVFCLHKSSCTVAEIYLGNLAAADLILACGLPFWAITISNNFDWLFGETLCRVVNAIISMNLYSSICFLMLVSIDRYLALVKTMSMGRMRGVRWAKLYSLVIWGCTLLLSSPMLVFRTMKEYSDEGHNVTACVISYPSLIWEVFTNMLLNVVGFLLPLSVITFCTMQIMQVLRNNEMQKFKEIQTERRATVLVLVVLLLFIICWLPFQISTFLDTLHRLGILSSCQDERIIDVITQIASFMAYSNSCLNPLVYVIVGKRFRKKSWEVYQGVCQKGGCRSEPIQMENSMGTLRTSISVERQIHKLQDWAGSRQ

Endothelin ETA = Endothelin ETA (Homo sapiens, UniProt P25101); test: Receptor binding panel: Endothelin ETA; details: K-2 at 1 × 10^−7 mol/L
Sequence of Endothelin ETA (P25101 21-427): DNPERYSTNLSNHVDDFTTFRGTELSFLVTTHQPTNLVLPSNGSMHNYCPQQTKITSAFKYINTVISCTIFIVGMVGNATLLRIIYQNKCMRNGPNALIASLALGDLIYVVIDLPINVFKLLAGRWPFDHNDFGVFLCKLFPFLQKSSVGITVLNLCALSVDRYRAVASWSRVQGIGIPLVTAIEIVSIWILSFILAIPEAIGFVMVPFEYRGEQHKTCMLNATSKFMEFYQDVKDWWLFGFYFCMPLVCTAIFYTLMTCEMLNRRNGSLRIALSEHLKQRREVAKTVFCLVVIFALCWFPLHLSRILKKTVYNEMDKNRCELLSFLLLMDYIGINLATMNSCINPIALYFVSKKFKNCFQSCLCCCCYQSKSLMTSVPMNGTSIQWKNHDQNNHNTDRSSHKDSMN

[1] = tested on: Glycine (Strychnine sensitive); test: Receptor binding panel: Glycine (Strychnine sensitive); details: K-2 at 1 × 10^−7 mol/L
[2] = tested on: Glutamate (NMDA agonist site); test: Receptor binding panel: Glutamate (NMDA agonist site); details: K-2 at 1 × 10^−7 mol/L

Sequence of Opiate μ (P35372 whole entry): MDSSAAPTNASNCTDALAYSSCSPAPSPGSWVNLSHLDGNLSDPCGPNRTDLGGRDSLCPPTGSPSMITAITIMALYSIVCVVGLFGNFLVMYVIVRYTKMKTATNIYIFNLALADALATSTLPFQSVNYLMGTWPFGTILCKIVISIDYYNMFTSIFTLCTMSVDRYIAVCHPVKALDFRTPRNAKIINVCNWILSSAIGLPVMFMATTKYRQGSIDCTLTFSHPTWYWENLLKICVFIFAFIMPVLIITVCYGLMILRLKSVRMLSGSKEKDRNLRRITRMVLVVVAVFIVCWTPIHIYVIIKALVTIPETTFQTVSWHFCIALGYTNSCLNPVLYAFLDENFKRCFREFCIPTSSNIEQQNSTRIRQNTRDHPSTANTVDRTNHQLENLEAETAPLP

What does the source list for `CN(CCSc1cc(F)c(OCC(N)=O)c(F)c1)S(=O)(=O)c1ccccc1` [K-2, {4-[2-(benzenesulfonyl-methyl-amino)-ethylsulfanil]-2,6-difluoro-phenoxy}-acetamide]?
inhibition at 0.1 µM (Opiate μ): 8.78%; AMPA receptor presented on the surface of the cell membrane (AMPA receptor; 5 mg/kg of K-2, hippocampus, vs 50% DMSO): 136%±14; change in the total amount of the AMPA receptors (AMPA receptor; 5 mg/kg of K-2, same animal): not recognized; inhibition at 0.1 µM (α2B-Adrenergic): 5.83%; inhibition at 0.1 µM (Bradykinin B2): 10.3%; inhibition at 0.1 µM (Endothelin ETA): 1.81%; Inhibition (%) [1]: 8.46%; Inhibition (%) [2]: 0.57%
